Measured values published in patent publication US20240208992A1, “MACROCYCLES AS CFTR MODULATORS” (Idorsia Pharmaceuticals Ltd, priority 2021, published 2024).

Target: human F508del-CFTR (Homo sapiens, UniProt P13569, DEL508-508)
Test: F508del-CFTR cell surface expression (corrector activity), DiscoveRx ß-galactosidase complementation chemiluminescence assay in recombinant U2OS cell line;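 further: U2OS cells co-expressing ProLink-tagged F508del-CFTR and a membrane-anchored enzyme acceptor, where more surface CFTR restores β-galactosidase activity measured by chemiluminescence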
Details: U2OS cells, 16h compound incubation; for EC50: EC50, F508del-CFTR cell surface expression, geomean of several measurements; for Emax: U2OS, in relation to the Emax of the corrector lumacaftor (=100%), arithmetic mean

Chain of human F508del-CFTR (P13569 with tags, fused parts or gaps DEL508-508): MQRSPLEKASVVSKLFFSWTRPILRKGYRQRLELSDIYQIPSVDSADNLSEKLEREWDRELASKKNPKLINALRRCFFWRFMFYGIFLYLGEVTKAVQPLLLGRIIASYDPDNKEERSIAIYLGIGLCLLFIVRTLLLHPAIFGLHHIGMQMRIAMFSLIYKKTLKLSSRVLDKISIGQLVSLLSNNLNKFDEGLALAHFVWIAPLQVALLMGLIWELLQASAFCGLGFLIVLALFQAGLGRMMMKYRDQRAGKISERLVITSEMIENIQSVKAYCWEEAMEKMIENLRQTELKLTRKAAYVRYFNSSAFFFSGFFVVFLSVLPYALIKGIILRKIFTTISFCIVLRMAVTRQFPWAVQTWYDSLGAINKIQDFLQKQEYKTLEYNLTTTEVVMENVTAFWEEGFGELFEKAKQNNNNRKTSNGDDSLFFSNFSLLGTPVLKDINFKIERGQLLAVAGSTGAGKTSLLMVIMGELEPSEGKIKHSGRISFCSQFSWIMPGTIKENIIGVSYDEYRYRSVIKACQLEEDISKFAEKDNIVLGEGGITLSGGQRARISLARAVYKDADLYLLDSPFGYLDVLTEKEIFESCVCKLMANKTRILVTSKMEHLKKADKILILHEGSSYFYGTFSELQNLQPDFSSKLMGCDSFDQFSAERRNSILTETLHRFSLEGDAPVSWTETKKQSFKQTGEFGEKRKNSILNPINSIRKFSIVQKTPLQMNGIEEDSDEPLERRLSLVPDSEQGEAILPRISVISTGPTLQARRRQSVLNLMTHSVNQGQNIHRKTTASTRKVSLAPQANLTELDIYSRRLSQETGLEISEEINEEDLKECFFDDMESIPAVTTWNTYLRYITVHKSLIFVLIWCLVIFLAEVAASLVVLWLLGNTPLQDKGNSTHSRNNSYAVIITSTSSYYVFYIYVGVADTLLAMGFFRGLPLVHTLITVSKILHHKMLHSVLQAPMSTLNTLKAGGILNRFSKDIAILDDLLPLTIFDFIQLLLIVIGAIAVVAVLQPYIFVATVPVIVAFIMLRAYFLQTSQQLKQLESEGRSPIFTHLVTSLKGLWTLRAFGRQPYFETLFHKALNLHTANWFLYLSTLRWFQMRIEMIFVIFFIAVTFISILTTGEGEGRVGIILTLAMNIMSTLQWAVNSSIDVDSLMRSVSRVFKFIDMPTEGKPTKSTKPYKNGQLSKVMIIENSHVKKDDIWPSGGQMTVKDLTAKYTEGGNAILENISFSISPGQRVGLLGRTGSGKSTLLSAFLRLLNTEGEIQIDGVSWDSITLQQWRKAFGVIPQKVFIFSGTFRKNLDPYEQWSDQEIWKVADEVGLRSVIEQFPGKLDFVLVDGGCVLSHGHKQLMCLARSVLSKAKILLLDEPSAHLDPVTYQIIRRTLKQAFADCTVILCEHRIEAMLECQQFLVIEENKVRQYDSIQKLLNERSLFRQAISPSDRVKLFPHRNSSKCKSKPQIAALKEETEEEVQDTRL

Cc1cc2c3c(ccc2cn1)OC[C@@H](Cc1ccccc1)NC(=O)[C@@H](CC(F)(F)F)N(C)C(=O)[C@H](CC(C)C)N(C)C(=O)C[C@@H](C(=O)NCCc1nc(C2CC2)no1)NC3=O [Example 951, (3S,7S,10R,13R)-13-benzyl-N-(2-(3-cyclopropyl-1,2,4-oxadiazol-5-yl)ethyl)-7-isobutyl-6,9,20-trimethyl-1,5,8,11-tetraoxo-10-(2,2,2-trifluoroethyl)-1,2,3,4,5,6,7,8,9,10,11,12,13,14-tetradecahydro-[1]oxa[4,7,10,14]tetraazacycloheptadecino[16,17-f]isoquinoline-3-carboxamide]
EC50: 165 nM
Emax: 405%

Cc1cc2c3c(ccc2cn1)OC[C@@H](Cc1ccccc1)NC(=O)C1(CC(F)(F)C1)N(C)C(=O)[C@H](CC(C)C)N(C)C(=O)C[C@@H](C(=O)NCCc1nc(C2CC2)no1)NC3=O [Example 952, (3′S,7′S,13′R)-13′-benzyl-N-(2-(3-cyclopropyl-1,2,4-oxadiazol-5-yl)ethyl)-3,3-difluoro-7′-isobutyl-6′,9′,20′-trimethyl-1′,5′,8′,11′-tetraoxo-2′,3′,4′,5′,6′,7′,8′,9′,11′,12′,13′,14′-dodecahydro-1′H-spiro[cyclobutane-1,10′-[1]oxa[4,7,10,14]tetraazacycloheptadecino[16,17-f]isoquinoline]-3′-carboxamide]
EC50: 339 nM
Emax: 438%

COc1cc(CCNC(=O)[C@@H]2CC(=O)N(C)[C@@H](CC(C)C)C(=O)N(C)C3(CC(F)(F)C3)C(=O)N[C@H](Cc3ccccc3)COc3ccc4cnc(C)cc4c3C(=O)N2)on1 [Example 953, (3′S,7′S,13′R)-13′-benzyl-3,3-difluoro-7′-isobutyl-N-(2-(3-methoxyisoxazol-5-yl)ethyl)-6′,9′,20′-trimethyl-1′,5′,8′,11′-tetraoxo-2′,3′,4′,5′,6′,7′,8′,9′,11′,12′,13′,14′-dodecahydro-1′H-spiro[cyclobutane-1,10′-[1]oxa[4,7,10,14]tetraazacycloheptadecino[16,17-f]isoquinoline]-3′-carboxamide]
EC50: 268 nM
Emax: 394%

COc1noc(CCNC(=O)[C@@H]2CC(=O)N(C)[C@@H](CC(C)C)C(=O)N(C)C3(CC(F)(F)C3)C(=O)N[C@H](Cc3ccccc3)COc3ccc4cnc(C)cc4c3C(=O)N2)n1 [Example 954, (3′S,7′S,13′R)-13′-benzyl-3,3-difluoro-7′-isobutyl-N-(2-(3-methoxy-1,2,4-oxadiazol-5-yl)ethyl)-6′,9′,20′-trimethyl-1′,5′,8′,11′-tetraoxo-2′,3′,4′,5′,6′,7′,8′,9′,11′,12′,13′,14′-dodecahydro-1′H-spiro[cyclobutane-1,10′-[1]oxa[4,7,10,14]tetraazacycloheptadecino[16,17-f]isoquinoline]-3′-carboxamide]
EC50: 382 nM
Emax: 383%

Cc1cc2c3c(ccc2cn1)OC[C@@H](Cc1ccccc1)NC(=O)C1(CC(F)(F)C1)N(C)C(=O)[C@H](CC(C)C)N(C)C(=O)C[C@@H](C(=O)NCCn1nnc(C2CC2)n1)NC3=O [Example 955, (3′S,7′S,13′R)-13′-benzyl-N-(2-(5-cyclopropyl-2H-tetrazol-2-yl)ethyl)-3,3-difluoro-7′-isobutyl-6′,9′,20′-trimethyl-1′,5′,8′,11′-tetraoxo-2′,3′,4′,5′,6′,7′,8′,9′,11′,12′,13′,14′-dodecahydro-1′H-spiro[cyclobutane-1,10′-[1]oxa[4,7,10,14]tetraazacycloheptadecino[16,17-f]isoquinoline]-3′-carboxamide]
EC50: 381 nM
Emax: 394%

Cc1cc2c3c(ccc2cn1)OC[C@@H](Cc1ccccc1)NC(=O)[C@@H](CC(F)(F)F)N(C)C(=O)[C@H](CC(C)C)N(C)C(=O)C[C@@H](C(=O)NCCc1cc(C2CC2)no1)NC3=O [Example 956, (3S,7S,10R,13R)-13-benzyl-N-(2-(3-cyclopropylisoxazol-5-yl)ethyl)-7-isobutyl-6,9,20-trimethyl-1,5,8,11-tetraoxo-10-(2,2,2-trifluoroethyl)-1,2,3,4,5,6,7,8,9,10,11,12,13,14-tetradecahydro-[1]oxa[4,7,10,14]tetraazacycloheptadecino[16,17-f]isoquinoline-3-carboxamide]
EC50: 508 nM
Emax: 412%

COc1cc(CCNC(=O)[C@@H]2CC(=O)N(C)[C@@H](CC(C)C)C(=O)N(C)[C@H](CC(F)(F)F)C(=O)N[C@H](Cc3ccccc3)COc3ccc4cnc(C)cc4c3C(=O)N2)on1 [Example 957, (3S,7S,10R,13R)-13-benzyl-7-isobutyl-N-(2-(3-methoxyisoxazol-5-yl)ethyl)-6,9,20-trimethyl-1,5,8,11-tetraoxo-10-(2,2,2-trifluoroethyl)-1,2,3,4,5,6,7,8,9,10,11,12,13,14-tetradecahydro-[1]oxa[4,7,10,14]tetraazacycloheptadecino[16,17-f]isoquinoline-3-carboxamide]
EC50: 192 nM
Emax: 451%

Cc1cc2c3c(ccc2cn1)OC[C@@H](Cc1ccccc1)NC(=O)[C@@H](CC(F)(F)F)N(C)C(=O)[C@H](CC(C)C)N(C)C(=O)C[C@@H](C(=O)NCCc1cc(C2CC2)on1)NC3=O [Example 958, (3S,7S,10R,13R)-13-benzyl-N-(2-(5-cyclopropylisoxazol-3-yl)ethyl)-7-isobutyl-6,9,20-trimethyl-1,5,8,11-tetraoxo-10-(2,2,2-trifluoroethyl)-1,2,3,4,5,6,7,8,9,10,11,12,13,14-tetradecahydro-[1]oxa[4,7,10,14]tetraazacycloheptadecino[16,17-f]isoquinoline-3-carboxamide]
EC50: 338 nM
Emax: 439%

Cc1cc2c3c(ccc2cn1)OC[C@@H](Cc1ccccc1)NC(=O)[C@@H](CC(F)(F)F)N(C)C(=O)[C@H](CC(C)C)N(C)C(=O)C[C@@H](C(=O)NCCn1nnc(C2CC2)n1)NC3=O [Example 959, (3S,7S,10R,13R)-13-benzyl-N-(2-(5-cyclopropyl-2H-tetrazol-2-yl)ethyl)-7-isobutyl-6,9,20-trimethyl-1,5,8,11-tetraoxo-10-(2,2,2-trifluoroethyl)-1,2,3,4,5,6,7,8,9,10,11,12,13,14-tetradecahydro-[1]oxa[4,7,10,14]tetraazacycloheptadecino[16,17-f]isoquinoline-3-carboxamide]
EC50: 222 nM
Emax: 413%

COc1noc(CCNC(=O)[C@@H]2CC(=O)N(C)[C@@H](CC(C)C)C(=O)N(C)[C@H](CC(F)(F)F)C(=O)N[C@H](Cc3ccccc3)COc3ccc4cnc(C)cc4c3C(=O)N2)c1F [Example 960, (3S,7S,10R,13R)-13-benzyl-N-(2-(4-fluoro-3-methoxyisoxazol-5-yl)ethyl)-7-isobutyl-6,9,20-trimethyl-1,5,8,11-tetraoxo-10-(2,2,2-trifluoroethyl)-1,2,3,4,5,6,7,8,9,10,11,12,13,14-tetradecahydro-[1]oxa[4,7,10,14]tetraazacycloheptadecino[16,17-f]isoquinoline-3-carboxamide]
EC50: 85 nM
Emax: 507%

COCCn1cc(CCNC(=O)[C@@H]2CC(=O)N(C)[C@@H](CC(C)C)C(=O)N(C)[C@H](Cc3nc(C(F)(F)F)no3)C(=O)N[C@H](Cc3ccccc3)COc3cc(C)nc(OC)c3C(=O)N2)cn1 [Example 961, (3R,6R,9S,13S)-3-benzyl-9-isobutyl-16-methoxy-N-(2-(1-(2-methoxyethyl)-1H-pyrazol-4-yl)ethyl)-7,10,18-trimethyl-5,8,11,15-tetraoxo-6-((3-(trifluoromethyl)-1,2,4-oxadiazol-5-yl)methyl)-2,3,4,5,6,7,8,9,10,11,12,13,14,15-tetradecahydropyrido[3,4-p][1]oxa[4,7,10,14]tetraazacycloheptadecine-13-carboxamide]
EC50: 353 nM
Emax: 453%

COCCn1cc(CCNC(=O)[C@@H]2CC(=O)N(C)[C@@H](CC(C)C)C(=O)N(C)[C@H](Cc3nc(C(F)(F)F)no3)C(=O)N[C@H](Cc3ccccc3)COc3ccc4ncc(F)cc4c3C(=O)N2)cn1 [Example 962, (3S,7S,10R,13R)-13-benzyl-20-fluoro-7-isobutyl-N-(2-(1-(2-methoxyethyl)-1H-pyrazol-4-yl)ethyl)-6,9-dimethyl-1,5,8,11-tetraoxo-10-((3-(trifluoromethyl)-1,2,4-oxadiazol-5-yl)methyl)-1,2,3,4,5,6,7,8,9,10,11,12,13,14-tetradecahydro-[1]oxa[4,7,10,14]tetraazacycloheptadecino[16,17-f]quinoline-3-carboxamide]
EC50: 103 nM
Emax: 453%

COc1noc(CCNC(=O)[C@@H]2CC(=O)N(C)[C@@H](CC(C)C)C(=O)N(C)C3(CC3)C(=O)N[C@H](Cc3ccccc3)COc3ccc4ncc(F)cc4c3C(=O)N2)c1F [Example 963, (3′S,7′S,13′R)-13′-benzyl-20′-fluoro-N-(2-(4-fluoro-3-methoxyisoxazol-5-yl)ethyl)-7′-isobutyl-6′,9′-dimethyl-1′,5′,8′,11′-tetraoxo-2′,3′,4′,5′,6′,7′,8′,9′,11′,12′,13′,14′-dodecahydro-1′H-spiro[cyclopropane-1,10′-[1]oxa[4,7,10,14]tetraazacycloheptadecino[16,17-f]quinoline]-3′-carboxamide]
EC50: 267 nM
Emax: 447%

CC(C)C[C@H]1C(=O)N(C)[C@H](Cc2nc(C(F)(F)F)no2)C(=O)N[C@H](Cc2ccccc2)COc2ccc3ncc(F)cc3c2C(=O)N[C@H](C(=O)NCCc2nc(C3CC3)no2)CC(=O)N1C [Example 964, (3S,7S,10R,13R)-13-benzyl-N-(2-(3-cyclopropyl-1,2,4-oxadiazol-5-yl)ethyl)-20-fluoro-7-isobutyl-6,9-dimethyl-1,5,8,11-tetraoxo-10-((3-(trifluoromethyl)-1,2,4-oxadiazol-5-yl)methyl)-1,2,3,4,5,6,7,8,9,10,11,12,13,14-tetradecahydro-[1]oxa[4,7,10,14]tetraazacycloheptadecino[16,17-f]quinoline-3-carboxamide]
EC50: 21 nM
Emax: 418%
